Laboratory results published in PubChem BioAssay AID328 (DTP/NCI, 2004).
Values joined by “and” are separate entries in the source; they are usually repeats but may differ in a detail not shown here. Identical values can stand only once. Toxic doses and inconclusive results are not listed. Starred links: 1 amine or outer side, 2 acyl side, 3 side chain; linkers in the order of their positions; H or OH if unused. Positions of bridges follow the written chain, without caps; N, C: chain ends. Non-standard residues stand in square brackets, D forms with d. Residues, ends and D or L forms follow the SMILES beside them. Chains are numbered I, II in the order given. Actinocin(1to9) = Cc1c2oc3c(C)ccc(C(=O)[*:2])c3nc-2c(C(=O)[*:1])c(N)c1=O; NMeV = CN[CH](C(=O)O)C(C)C; Sar = CNCC(=O)O

Tested on: BDF1 mice, P388 leukemia ip, median survival T/C
Experiment: NCI In Vivo Anticancer Drug Screen. Data for tumor model P388 Leukemia (intraperitoneal) in B6D2F1 (BDF1) mice
Conditions: endpoint: median survival time, higher = longer survival
Outline: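 Survival ratio, drug arm over vehicle arm, in mice with a transplanted tumour.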

[1] = dose: 12.5 mg/kg/injection, schedule: Q01DX009 (ip), vehicle: saline with Tween-80
[2] = dose: 25.0 mg/kg/injection, schedule: Q01DX009 (ip), vehicle: saline with Tween-80
[3] = dose: 50.0 mg/kg/injection, schedule: Q01DX009 (ip), vehicle: saline with Tween-80
[4] = dose: 50.0 mg/kg/injection, schedule: Q04DX003 (ip), vehicle: saline with Tween-80
[5] = dose: 100.0 mg/kg/injection, schedule: Q04DX003 (ip), vehicle: saline with Tween-80
[6] = dose: 200.0 mg/kg/injection, schedule: Q04DX003 (ip), vehicle: saline with Tween-80
[7] = dose: 400.0 mg/kg/injection, schedule: Q04DX003 (ip), vehicle: saline with Tween-80

`CCC(C)C1NC(=O)C(NC(=O)c2c3nc4c(C(=O)NC5C(=O)NC(C(C)C)C(=O)N6CCCC6C(=O)N(C)CC(=O)N(C)C(C(C)C)C(=O)OC5C)ccc(C)c4oc-3c(C)c(=O)c2N)C(C)OC(=O)C(C(C)C)N(C)C(=O)CN(C)C(=O)C2CCCN2C1=O` (stereo not drawn) (I: TIP[Sar][NMeV] / II: TVP[Sar][NMeV]; ester I:1-I:C, II:1-II:C; linker I:N-II:N via Actinocin(1to9); configuration not given here) was tested, and the T/C (dose: 0.05 mg/kg/injection, schedule: Q01DX010 (ip), vehicle: saline) was 300 % of control, the T/C (dose: 0.1 mg/kg/injection, schedule: Q01DX010 (ip), vehicle: saline) was 100 % of control and the T/C (dose: 0.2 mg/kg/injection, schedule: Q01DX001 (ip), vehicle: water) was 175 % of control. For the same compound, the T/C (dose: 0.4 mg/kg/injection, schedule: Q01DX001 (ip), vehicle: water) was 155 % of control, the T/C (dose: 0.8 mg/kg/injection, schedule: Q01DX001 (ip), vehicle: water) was 175 % of control and the T/C (dose: 3.1 micrograms/kg/injection, schedule: Q01DX001 (ip), vehicle: saline) was 118 % of control. For the same compound, the T/C (dose: 3.1 micrograms/kg/injection, schedule: Q01DX010 (ip), vehicle: saline) was 180 % of control, the T/C (dose: 3.1 micrograms/kg/injection, schedule: Q04DX003 (ip), vehicle: saline) was 118 % of control and the T/C (dose: 6.0 micrograms/kg/injection, schedule: Q01DX010 (ip), vehicle: saline) was 180 % of control. The T/C (dose: 6.2 micrograms/kg/injection, schedule: Q01DX010 (ip), vehicle: saline) was 190 % of control, the T/C (dose: 6.3 micrograms/kg/injection, schedule: Q01DX001 (ip), vehicle: saline) was 109 % of control and the T/C (dose: 12.5 micrograms/kg/injection, schedule: Q01DX009 (ip), vehicle: water) was 213 % of control. For the same compound, the T/C (dose: 12.5 micrograms/kg/injection, schedule: Q01DX010 (ip), vehicle: saline) was 228 % of control and 220 % of control, the T/C (dose: 25.0 micrograms/kg/injection, schedule: Q01DX009 (ip), vehicle: water) was 215 % of control and the T/C (dose: 25.0 micrograms/kg/injection, schedule: Q01DX010 (ip), vehicle: saline) was 285 % of control and 220 % of control. For the same compound, the T/C (dose: 25.0 micrograms/kg/injection, schedule: Q04DX003 (ip), vehicle: saline) was 154 % of control, the T/C (dose: 50.0 micrograms/kg/injection, schedule: Q01DX001 (ip), vehicle: saline) was 150 % of control and the T/C (dose: 50.0 micrograms/kg/injection, schedule: Q01DX009 (ip), vehicle: water) was 215 % of control. For the same compound, the T/C (dose: 50.0 micrograms/kg/injection, schedule: Q01DX010 (ip), vehicle: saline) was 285 % of control and 300 % of control, the T/C (dose: 50.0 micrograms/kg/injection, schedule: Q04DX003 (ip), vehicle: saline) was 190 % of control and the T/C (dose: 75.0 micrograms/kg/injection, schedule: Q04DX003 (ip), vehicle: water) was 172 % of control. The T/C (dose: 100.0 micrograms/kg/injection, schedule: Q01DX001 (ip), vehicle: saline) was 159 % of control, the T/C (dose: 100.0 micrograms/kg/injection, schedule: Q01DX009 (ip), vehicle: water) was 243 % of control and the T/C (dose: 100.0 micrograms/kg/injection, schedule: Q01DX010 (ip), vehicle: saline) was 110 % of control. The T/C (dose: 100.0 micrograms/kg/injection, schedule: Q04DX003 (ip), vehicle: saline) was 186 % of control, the T/C (dose: 150.0 micrograms/kg/injection, schedule: Q04DX003 (ip), vehicle: water) was 181 % of control and the T/C (dose: 200.0 micrograms/kg/injection, schedule: Q01DX001 (ip), vehicle: saline) was 186 % of control. The T/C (dose: 200.0 micrograms/kg/injection, schedule: Q01DX010 (ip), vehicle: saline) was 90 % of control, the T/C (dose: 200.0 micrograms/kg/injection, schedule: Q04DX003 (ip), vehicle: saline) was 231 % of control and the T/C (dose: 300.0 micrograms/kg/injection, schedule: Q04DX003 (ip), vehicle: water) was 241 % of control. The T/C (dose: 400.0 micrograms/kg/injection, schedule: Q01DX001 (ip), vehicle: saline) was 218 % of control, the T/C (dose: 400.0 micrograms/kg/injection, schedule: Q04DX003 (ip), vehicle: saline) was 263 % of control and the T/C (dose: 600.0 micrograms/kg/injection, schedule: Q04DX003 (ip), vehicle: water) was 267 % of control.

With `CN(C)N=Nc1cc(Cl)cc(C(N)=O)c1Cl` the T/C [1] was 108 % of control, the T/C [2] was 104 % of control and the T/C [3] was 104 % of control. For the same compound, the T/C (dose: 88.0 mg/kg/injection, schedule: Q01DX009 (ip), vehicle: saline with Tween-80) was 108 % of control, the T/C (dose: 177.0 mg/kg/injection, schedule: Q01DX009 (ip), vehicle: saline with Tween-80) was 95 % of control and the T/C (dose: 266.0 mg/kg/injection, schedule: Q01DX009 (ip), vehicle: saline with Tween-80) was 87 % of control.

With `CCOC(=O)C1Cc2c([nH]c(=S)[nH]c2=O)OC1c1ccccc1` (stereo not drawn) the T/C [1] was 100 % of control, the T/C [2] was 90 % of control and the T/C [3] was 104 % of control.

`N=C(N)SCc1cccc([N+](=O)[O-])c1` was tested, and the T/C (dose: 12.5 mg/kg/injection, schedule: Q01DX009 (ip), vehicle: Klucel (hydroxypropylcellulose) (HPC)) was 97 % of control, the T/C (dose: 25.0 mg/kg/injection, schedule: Q01DX009 (ip), vehicle: Klucel (hydroxypropylcellulose) (HPC)) was 103 % of control and the T/C (dose: 50.0 mg/kg/injection, schedule: Q01DX009 (ip), vehicle: Klucel (hydroxypropylcellulose) (HPC)) was 110 % of control.

With `COc1cc(NC(C)CCCN)c2ncccc2c1Oc1ccc(Cl)cc1` (stereo not drawn) the T/C [3] was 100 % of control.

`C[C@]12CC[C@H]3[C@@H](CC[C@]4(O)C[C@@H](O)CC[C@]34C=O)[C@@]1(O)CC[C@@H]2c1ccc(=O)oc1` was tested, and the T/C (dose: 13.7 mg/kg/injection, schedule: Q01DX010 (ip), vehicle: carboxymethylcellulose (CMC)) was 95 % of control and the T/C (dose: 27.5 mg/kg/injection, schedule: Q01DX010 (ip), vehicle: carboxymethylcellulose (CMC)) was 100 % of control.

With `CCCCCCCCNCCCCCCCC` the T/C (dose: 9.0 mg/kg/injection, schedule: Q01DX009 (ip), vehicle: gum acacia) was 108 % of control and 113 % of control, the T/C (dose: 9.0 mg/kg/injection, schedule: Q04DX003 (ip), vehicle: gum acacia) was 100 % of control and the T/C (dose: 18.0 mg/kg/injection, schedule: Q01DX009 (ip), vehicle: gum acacia) was 95 % of control and 108 % of control. The T/C (dose: 18.0 mg/kg/injection, schedule: Q04DX003 (ip), vehicle: gum acacia) was 95 % of control, the T/C (dose: 37.0 mg/kg/injection, schedule: Q01DX009 (ip), vehicle: gum acacia) was 104 % of control and 116 % of control and the T/C (dose: 37.0 mg/kg/injection, schedule: Q04DX003 (ip), vehicle: gum acacia) was 100 % of control.

`C=CC(C)(C)c1cc2cc3c(cc2oc1=O)OC(C(C)(C)OC(C)=O)C3` (stereo not drawn) was tested, and the T/C (dose: 100.0 mg/kg/injection, schedule: Q04DX003 (ip), vehicle: saline) was 107 % of control and the T/C (dose: 200.0 mg/kg/injection, schedule: Q04DX003 (ip), vehicle: saline) was 104 % of control.

`N=C1C=C[C@]2(O)C[C@H](Cl)CN12` was tested, and the T/C (dose: 0.38 mg/kg/injection, schedule: Q01DX009 (ip), vehicle: saline) was 104 % of control, the T/C (dose: 0.75 mg/kg/injection, schedule: Q01DX009 (ip), vehicle: saline) was 104 % of control and the T/C (dose: 1.5 mg/kg/injection, schedule: Q01DX009 (ip), vehicle: saline) was 114 % of control. For the same compound, the T/C (dose: 3.0 mg/kg/injection, schedule: Q01DX009 (ip), vehicle: saline) was 98 % of control and the T/C (dose: 6.0 mg/kg/injection, schedule: Q01DX009 (ip), vehicle: saline) was 117 % of control.

`C=C/C(C)=C/[C@H](C)C(=O)C[C@H](O)CC1CC(=O)NC(=O)C1` was tested, and the T/C (dose: 7.3 mg/kg/injection, schedule: Q01DX009 (ip), vehicle: saline with Tween-80) was 111 % of control, the T/C (dose: 11.0 mg/kg/injection, schedule: Q01DX009 (ip), vehicle: saline with Tween-80) was 121 % of control and the T/C (dose: 16.5 mg/kg/injection, schedule: Q01DX009 (ip), vehicle: saline with Tween-80) was 171 % of control. The T/C [2] was 123 % of control and 124 % of control, the T/C (dose: 37.5 mg/kg/injection, schedule: Q01DX009 (ip), vehicle: saline with Tween-80) was 152 % of control and the T/C (dose: 75.0 mg/kg/injection, schedule: Q01DX009 (ip), vehicle: saline with Tween-80) was 180 % of control.

In the case of `COc1ccc(OC)c(/C=C/c2ccc3ccccc3n2)c1`, the T/C [4] is reported as 105 % of control, the T/C [5] is reported as 100 % of control and 105 % of control and the T/C [6] is reported as 110 % of control. The T/C [7] was 100 % of control.

In the case of `CC1=C(C)Cc2c(c(OC(=O)c3ccccc3)cc(Cl)c2OC(=O)c2ccccc2)C1`, the T/C (dose: 12.5 mg/kg/injection, schedule: Q04DX003 (ip), vehicle: saline with Tween-80) is reported as 94 % of control, the T/C (dose: 25.0 mg/kg/injection, schedule: Q04DX003 (ip), vehicle: saline with Tween-80) is reported as 94 % of control and the T/C [4] is reported as 92 % of control. The T/C [5] was 90 % of control, the T/C [6] was 93 % of control and the T/C [7] was 94 % of control.

For `COC(=O)C(CSCSC)NC(=O)Nc1ccc(F)cc1` (stereo not drawn), the T/C (dose: 100.0 mg/kg/injection, schedule: Q01DX009 (ip), vehicle: saline with Tween-80) was 100 % of control, the T/C [5] was 100 % of control and the T/C (dose: 200.0 mg/kg/injection, schedule: Q01DX009 (ip), vehicle: saline with Tween-80) was 100 % of control. For the same compound, the T/C [6] was 95 % of control, the T/C (dose: 400.0 mg/kg/injection, schedule: Q01DX009 (ip), vehicle: saline with Tween-80) was 109 % of control and the T/C [7] was 90 % of control.
